In ChEMBL document CHEMBL4627403, “Development of Selective Steroid Inhibitors for the Glucose-6-phosphate Dehydrogenase from Trypanosoma cruzi” (ACS Med Chem Lett, 2020):
The source made the active and inactive calls. The calls are words filed in the database; no cut-off is given here.

Test system: H9c2
Experiment: Cytotoxicity against rat H9c2 cells after 72 hrs by Hoechst 33342 staining based fluorescence microscopy
Assay type: cell-based
Conditions: H9c2, 72 h

| Compound | EC50 [µM] |
| --- | --- |
| CC(C)CO[C@H]1CC[C@@]2(C)[C@@H](CC[C@@H]3[C@@H]2CC[C@]2(C)C(=O)[C@H](Br)C[C@@H]32)C1 | 12.3 |
| C[C@]12CC[C@H](OCC(=O)N3CCOCC3)C[C@@H]1CC[C@@H]1[C@@H]2CC[C@]2(C)C(=O)[C@H](Br)C[C@@H]12 | 5.6 |
| C[C@]12CC[C@H](O)C[C@@H]1CC[C@@H]1[C@@H]2CC[C@]2(C)C(=O)[C@H](Br)C[C@@H]12 [16.ALPHA.-BROMOEPIANDROSTERONE] | 13 |
| C[C@]12CC[C@H](OS(C)(=O)=O)C[C@@H]1CC[C@@H]1[C@@H]2CC[C@]2(C)C(=O)[C@H](Br)C[C@@H]12 | 7.5 |
| C[C@]12CC[C@H](OCCS(=O)(=O)N3CCOCC3)C[C@@H]1CC[C@@H]1[C@@H]2CC[C@]2(C)C(=O)[C@H](Br)C[C@@H]12 | 8.5 |
| O=C(Cn1ccnc1[N+](=O)[O-])NCc1ccccc1 [BENZNIDAZOLE] | > 40 |
| C[C@]12CCCC[C@@H]1CC[C@@H]1[C@@H]2CC[C@]2(C)C(=O)[C@H](Br)C[C@@H]12 | 8.4 |
| C=CCC(=O)O[C@H]1CC[C@@]2(C)[C@@H](CC[C@@H]3[C@@H]2CC[C@]2(C)C(=O)[C@H](Br)C[C@@H]32)C1 | 54 |
| CC(=O)O[C@H]1CC[C@@]2(C)[C@@H](CC[C@@H]3[C@@H]2CC[C@]2(C)C(=O)[C@H](Br)C[C@@H]32)C1 | 14.7 |

Test system: Trypanosoma cruzi
Experiment: Antitrypanosomal activity against Trypanosoma cruzi Y amastigotes infected in rat H9C2 cells after 72 hrs by Hoechst 33342 staining based fluorescence microscopy
Assay type: functional, organism-based
Conditions: H9c2, 72 h

| Compound | EC50 [µM] |
| --- | --- |
| CC(C)CO[C@H]1CC[C@@]2(C)[C@@H](CC[C@@H]3[C@@H]2CC[C@]2(C)C(=O)[C@H](Br)C[C@@H]32)C1 | 4.2 |
| C[C@]12CC[C@H](OCC(=O)N3CCOCC3)C[C@@H]1CC[C@@H]1[C@@H]2CC[C@]2(C)C(=O)[C@H](Br)C[C@@H]12 | 3.2 |
| C[C@]12CC[C@H](O)C[C@@H]1CC[C@@H]1[C@@H]2CC[C@]2(C)C(=O)[C@H](Br)C[C@@H]12 [16.ALPHA.-BROMOEPIANDROSTERONE] | 6.4 |
| C[C@]12CC[C@H](OS(C)(=O)=O)C[C@@H]1CC[C@@H]1[C@@H]2CC[C@]2(C)C(=O)[C@H](Br)C[C@@H]12 | 2.4 |
| C[C@]12CC[C@H](OCCS(=O)(=O)N3CCOCC3)C[C@@H]1CC[C@@H]1[C@@H]2CC[C@]2(C)C(=O)[C@H](Br)C[C@@H]12 | 2.4 |
| C[C@]12CCCC[C@@H]1CC[C@@H]1[C@@H]2CC[C@]2(C)C(=O)[C@H](Br)C[C@@H]12 | 3.5 |
| C=CCC(=O)O[C@H]1CC[C@@]2(C)[C@@H](CC[C@@H]3[C@@H]2CC[C@]2(C)C(=O)[C@H](Br)C[C@@H]32)C1 | 16.7 |
| CC(=O)O[C@H]1CC[C@@]2(C)[C@@H](CC[C@@H]3[C@@H]2CC[C@]2(C)C(=O)[C@H](Br)C[C@@H]32)C1 | 8.5 |

Test system: not listed separately
Experiment: Selectivity index, ratio of EC50 for cytotoxicity against rat H9C2 cells to EC50 for antitrypanosomal activity against Trypanosoma cruzi Y amastigotes infected in rat H9C2 cells
Assay type: toxicity, cell-based
Conditions: read-out: Ratio EC50

| Compound | selectivity ratio |
| --- | --- |
| CC(C)CO[C@H]1CC[C@@]2(C)[C@@H](CC[C@@H]3[C@@H]2CC[C@]2(C)C(=O)[C@H](Br)C[C@@H]32)C1 | 2.9 |
| C[C@]12CC[C@H](OCC(=O)N3CCOCC3)C[C@@H]1CC[C@@H]1[C@@H]2CC[C@]2(C)C(=O)[C@H](Br)C[C@@H]12 | 1.8 |
| C[C@]12CC[C@H](O)C[C@@H]1CC[C@@H]1[C@@H]2CC[C@]2(C)C(=O)[C@H](Br)C[C@@H]12 [16.ALPHA.-BROMOEPIANDROSTERONE] | 2 |
| C[C@]12CC[C@H](OS(C)(=O)=O)C[C@@H]1CC[C@@H]1[C@@H]2CC[C@]2(C)C(=O)[C@H](Br)C[C@@H]12 | 3.1 |
| C[C@]12CC[C@H](OCCS(=O)(=O)N3CCOCC3)C[C@@H]1CC[C@@H]1[C@@H]2CC[C@]2(C)C(=O)[C@H](Br)C[C@@H]12 | 3.5 |
| C[C@]12CCCC[C@@H]1CC[C@@H]1[C@@H]2CC[C@]2(C)C(=O)[C@H](Br)C[C@@H]12 | 2.4 |
| C=CCC(=O)O[C@H]1CC[C@@]2(C)[C@@H](CC[C@@H]3[C@@H]2CC[C@]2(C)C(=O)[C@H](Br)C[C@@H]32)C1 | 3.2 |
| CC(=O)O[C@H]1CC[C@@]2(C)[C@@H](CC[C@@H]3[C@@H]2CC[C@]2(C)C(=O)[C@H](Br)C[C@@H]32)C1 | 1.7 |

Test system: not listed separately
Experiment: Selectivity index, ratio of IC50 for human G6PDH to IC50 for Trypanosoma cruzi G6PDH
Conditions: not given

| Compound | Ratio IC50 |
| --- | --- |
| C[C@]12CC[C@H](OCC(=O)N3CCOCC3)C[C@@H]1CC[C@@H]1[C@@H]2CC[C@]2(C)C(=O)[C@H](Br)C[C@@H]12 | 5 to 10 |
| CC(C)C(=O)O[C@H]1CC[C@@]2(C)[C@@H](CC[C@@H]3[C@@H]2CC[C@]2(C)C(=O)[C@H](Br)C[C@@H]32)C1 | > 400 |
| C[C@]12CC[C@H](O)C[C@@H]1CC[C@@H]1[C@@H]2CC[C@]2(C)C(=O)[C@H](Br)C[C@@H]12 [16.ALPHA.-BROMOEPIANDROSTERONE] | 2 |
| C[C@]12CC[C@H](OS(C)(=O)=O)C[C@@H]1CC[C@@H]1[C@@H]2CC[C@]2(C)C(=O)[C@H](Br)C[C@@H]12 | 6 |
| C[C@]12CC[C@H](OCCS(=O)(=O)N3CCOCC3)C[C@@H]1CC[C@@H]1[C@@H]2CC[C@]2(C)C(=O)[C@H](Br)C[C@@H]12 | 5 to 10 |
| C[C@]12CC[C@H](OS(C)(=O)=O)C[C@@H]1CC[C@@H]1[C@@H]2CC[C@]2(C)C(=O)CC[C@@H]12 | 2 |
| CC(=O)O[C@H]1CC[C@@]2(C)[C@@H](CC[C@@H]3[C@@H]2CC[C@]2(C)C(=O)[C@H](Br)C[C@@H]32)C1 | 160 |

Test system: Trypanosoma cruzi
Experiment: Antitrypanosomal activity against Trypanosoma cruzi Y amastigotes infected in rat H9C2 cells assessed as reduction in parasite infection at 20 uM after 72 hrs by Hoechst 33342 staining based fluorescence microscopy
Assay type: functional, organism-based
Conditions: not given

| Compound | Activity |
| --- | --- |
| C[C@]12CC[C@H](OS(=O)(=O)CCN3CCOCC3)C[C@@H]1CC[C@@H]1[C@@H]2CC[C@]2(C)C(=O)CC[C@@H]12 | inactive |
| CC(C)CO[C@H]1CC[C@@]2(C)[C@@H](CC[C@@H]3[C@@H]2CC[C@]2(C)C(=O)[C@H](Br)C[C@@H]32)C1 | Active |
| C[C@]12CC[C@H](OCC(=O)N3CCOCC3)C[C@@H]1CC[C@@H]1[C@@H]2CC[C@]2(C)C(=O)[C@H](Br)C[C@@H]12 | Active |
| C[C@]12CC[C@H](O)C[C@@H]1CC[C@@H]1[C@@H]2CC[C@]2(C)C(=O)[C@H](Br)C[C@@H]12 [16.ALPHA.-BROMOEPIANDROSTERONE] | Active |
| C[C@]12CC[C@H](OS(C)(=O)=O)C[C@@H]1CC[C@@H]1[C@@H]2CC[C@]2(C)C(=O)[C@H](Br)C[C@@H]12 | Active |
| C[C@]12CC[C@H](OCCS(=O)(=O)N3CCOCC3)C[C@@H]1CC[C@@H]1[C@@H]2CC[C@]2(C)C(=O)[C@H](Br)C[C@@H]12 | Active |
| C[C@]12CCCC[C@@H]1CC[C@@H]1[C@@H]2CC[C@]2(C)C(=O)[C@H](Br)C[C@@H]12 | Active |
| C[C@]12CC[C@H](OS(C)(=O)=O)C[C@@H]1CC[C@@H]1[C@@H]2CC[C@]2(C)C(=O)CC[C@@H]12 | inactive |
| C=CCC(=O)O[C@H]1CC[C@@]2(C)[C@@H](CC[C@@H]3[C@@H]2CC[C@]2(C)C(=O)[C@H](Br)C[C@@H]32)C1 | Active |
| C[C@]12CC[C@H](O)C[C@@H]1CC[C@@H]1[C@@H]2CC[C@]2(C)C(=O)CC[C@@H]12 [EPIANDROSTERONE] | inactive |
| CC(=O)O[C@H]1CC[C@@]2(C)[C@@H](CC[C@@H]3[C@@H]2CC[C@]2(C)C(=O)[C@H](Br)C[C@@H]32)C1 | Active |

Test system: H9c2
Experiment: Cytotoxicity against rat H9c2 cells at 20 uM after 72 hrs by Hoechst 33342 staining based fluorescence microscopy
Assay type: cell-based
Conditions: h9c2, 72 h

| Compound | Activity |
| --- | --- |
| C[C@]12CC[C@H](OS(=O)(=O)CCN3CCOCC3)C[C@@H]1CC[C@@H]1[C@@H]2CC[C@]2(C)C(=O)CC[C@@H]12 | Non-Toxic |
| CC(C)CO[C@H]1CC[C@@]2(C)[C@@H](CC[C@@H]3[C@@H]2CC[C@]2(C)C(=O)[C@H](Br)C[C@@H]32)C1 | Toxic |
| C[C@]12CC[C@H](OCC(=O)N3CCOCC3)C[C@@H]1CC[C@@H]1[C@@H]2CC[C@]2(C)C(=O)[C@H](Br)C[C@@H]12 | Toxic |
| C[C@]12CC[C@H](O)C[C@@H]1CC[C@@H]1[C@@H]2CC[C@]2(C)C(=O)[C@H](Br)C[C@@H]12 [16.ALPHA.-BROMOEPIANDROSTERONE] | Toxic |
| C[C@]12CC[C@H](OS(C)(=O)=O)C[C@@H]1CC[C@@H]1[C@@H]2CC[C@]2(C)C(=O)[C@H](Br)C[C@@H]12 | Toxic |
| C[C@]12CC[C@H](OCCS(=O)(=O)N3CCOCC3)C[C@@H]1CC[C@@H]1[C@@H]2CC[C@]2(C)C(=O)[C@H](Br)C[C@@H]12 | Toxic |
| C[C@]12CCCC[C@@H]1CC[C@@H]1[C@@H]2CC[C@]2(C)C(=O)[C@H](Br)C[C@@H]12 | Toxic |
| C[C@]12CC[C@H](OS(C)(=O)=O)C[C@@H]1CC[C@@H]1[C@@H]2CC[C@]2(C)C(=O)CC[C@@H]12 | Non-Toxic |
| C=CCC(=O)O[C@H]1CC[C@@]2(C)[C@@H](CC[C@@H]3[C@@H]2CC[C@]2(C)C(=O)[C@H](Br)C[C@@H]32)C1 | Toxic |
| C[C@]12CC[C@H](O)C[C@@H]1CC[C@@H]1[C@@H]2CC[C@]2(C)C(=O)CC[C@@H]12 [EPIANDROSTERONE] | Non-Toxic |
| CC(=O)O[C@H]1CC[C@@]2(C)[C@@H](CC[C@@H]3[C@@H]2CC[C@]2(C)C(=O)[C@H](Br)C[C@@H]32)C1 | Toxic |

Target: Glucose-6-phosphate 1-dehydrogenase (Homo sapiens, UniProt P11413)
Experiment: Inhibition of recombinant human G6PDH expressed in Escherichia coli at 80 uM by fluorescence assay
Conditions: not given

Chain of Glucose-6-phosphate 1-dehydrogenase (P11413 whole entry): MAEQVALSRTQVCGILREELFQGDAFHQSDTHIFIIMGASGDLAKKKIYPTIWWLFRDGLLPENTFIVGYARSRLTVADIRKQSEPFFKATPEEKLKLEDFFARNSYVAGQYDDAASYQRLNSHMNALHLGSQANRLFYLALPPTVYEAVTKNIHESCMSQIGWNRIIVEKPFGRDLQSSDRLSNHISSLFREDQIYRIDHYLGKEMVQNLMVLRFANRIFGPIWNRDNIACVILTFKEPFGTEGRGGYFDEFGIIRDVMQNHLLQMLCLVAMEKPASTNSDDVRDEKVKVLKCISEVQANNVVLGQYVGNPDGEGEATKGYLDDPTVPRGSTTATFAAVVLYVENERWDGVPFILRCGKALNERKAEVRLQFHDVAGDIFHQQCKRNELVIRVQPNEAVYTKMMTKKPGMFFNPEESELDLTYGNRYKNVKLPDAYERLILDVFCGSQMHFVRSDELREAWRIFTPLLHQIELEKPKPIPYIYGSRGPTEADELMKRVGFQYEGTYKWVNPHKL

| Compound | inhibition (INH) |
| --- | --- |
| CC(C)C(=O)O[C@H]1CC[C@@]2(C)[C@@H](CC[C@@H]3[C@@H]2CC[C@]2(C)C(=O)[C@H](Br)C[C@@H]32)C1 | Not Active |

Test system: not listed separately
Experiment: Inhibition of recombinant Trypanosoma cruzi G6PDH expressed in Escherichia coli by fluorescence assay
Conditions: not given

| Compound | IC50 [µM] |
| --- | --- |
| C[C@]12CC[C@H](OS(=O)(=O)CCN3CCOCC3)C[C@@H]1CC[C@@H]1[C@@H]2CC[C@]2(C)C(=O)CC[C@@H]12 | 5 |
| CC(C)C(=O)O[C@H]1CC[C@@]2(C)[C@@H](CC[C@@H]3[C@@H]2CC[C@]2(C)C(=O)[C@H](Br)C[C@@H]32)C1 | 0.15 to 0.38 |
| C=CCC(=O)O[C@H]1CC[C@@]2(C)[C@@H](CC[C@@H]3[C@@H]2CC[C@]2(C)C(=O)[C@H](Br)C[C@@H]32)C1 | 0.15 to 0.38 |
| CC(=O)O[C@H]1CC[C@@]2(C)[C@@H](CC[C@@H]3[C@@H]2CC[C@]2(C)C(=O)[C@H](Br)C[C@@H]32)C1 | 0.15 to 0.38 |

Test system: Trypanosoma cruzi
Experiment: Antitrypanosomal activity against Trypanosoma cruzi Y amastigotes infected in rat H9C2 rat cells assessed as reduction in number of infected cells at 10 uM after 72 hrs by Hoechst 33342 staining based fluorescence microscopy
Assay type: functional, organism-based
Conditions: not given

| Compound | Activity |
| --- | --- |
| CC(C)CO[C@H]1CC[C@@]2(C)[C@@H](CC[C@@H]3[C@@H]2CC[C@]2(C)C(=O)[C@H](Br)C[C@@H]32)C1 | Active |
| C[C@]12CC[C@H](OS(C)(=O)=O)C[C@@H]1CC[C@@H]1[C@@H]2CC[C@]2(C)C(=O)[C@H](Br)C[C@@H]12 | Active |
| C[C@]12CC[C@H](OCCS(=O)(=O)N3CCOCC3)C[C@@H]1CC[C@@H]1[C@@H]2CC[C@]2(C)C(=O)[C@H](Br)C[C@@H]12 | Active |
| O=C(Cn1ccnc1[N+](=O)[O-])NCc1ccccc1 [BENZNIDAZOLE] | Active |
